This passage reports IC50 results from patent US10961238B2, “Modulators of hedgehog (Hh) signaling pathway” (E-THERAPEUTICS PLC, priority 2016, dated 2021).

This assay deals with C3H10T1/2 cells. As to the kind of experiment: C3H assay: differentiation of C3H10T1/2 cells by mSHH, measurement of alkaline phosphatase. The assay is classed as cell-based, mouse. The following applies: Mus musculus, C3H 10T1/2; C3H10T1/2 cells stimulated with mSHH for 72 hours; alkaline phosphatase activity; read-out: IC50 Ranges.
As for `CC(C)N(CC(=O)N1CC(S(=O)(=O)N2CCC(c3c[nH]c4ncccc34)CC2)C1)C(C)C` [Compound 326, 2-[di(propan-2-yl)amino]-1-[3-[4-(1H-pyrrolo [2,3-b]pyridin-3-yl)piperidin-1-yl]sulfonylaze-tidin-1-yl]ethanone], the IC50 (in general, the point on the concentration scale where inhibition reaches its midpoint) is 10 to 100 nM.

For the compound `O=C(Nc1c(F)cccc1F)N1CC(S(=O)(=O)N2CCC(c3coc4cccnc34)CC2)C1` [Compound 403, N-(2,6-difluorophenyl)-3-(4-furo[3,2-b]pyridin-3-ylpiperidin-1-yl)sulfonylaze-tidine-1-carboxamide], the IC50 is 10 to 100 nM.

For the compound `CC(C)(C)OC(=O)N1CC(S(=O)(=O)N2CCC(c3ccc(F)cc3)CC2)C1` [Compound 327, tert-butyl 3-[4-(4-fluorophenyl)piperidin-l-yl]sulfonylaze-tidine-1-carboxylate], the IC50 lay within 100 to 1000 nM.

Take `O=C(NC1(C(F)(F)F)CC1)N1CC(S(=O)(=O)N2CCC(c3c[nH]c4ncccc34)CC2)C1` [Compound 57, 3-[[4-(1H-Pyrrolo[2,3-b]pyridin-3-yl)-1-piperidyl]sulfonyl]-N-[1-(trifluoromethyl)cyclopropyl]azetidine-1-carboxamide]: the IC50 is less than 10 nM.

As to `O=C(N1CCOCC1)N1CC(S(=O)(=O)N2CCC(c3coc4cccnc34)CC2)C1` [Compound 137, [3-(4-furo [3,2-b]pyridin-3-ylpiperidin-1-yl)sulfonylaze-tidin-1-yl]-morpholin-4-ylmethanone], the IC50 fell in the range of 100 to 1000 nM.

With `CC(C)(C)OC(=O)N1CC(S(=O)(=O)N2CCN(c3c[nH]c4ncccc34)CC2)C1` [Compound 226, tert-Butyl 3-[4-(1H-pyrrolo[2,3-b]pyridin-3-yl)piperazin-1-yl]sulfonylazetidine-1-carboxylate], the IC50 was in the range of 1000 to 10000 nM.

In the case of `CCN(C(=O)N1CC(S(=O)(=O)N2CCC(c3c[nH]c4ncccc34)CC2)C1)C(C)(C)C` [Compound 156, N-tert-butyl-N-ethyl-3-[4-(1H-pyrrolo[2,3-b]pyridin-3-yl)piperidin-1-yl]sulfonylaze-tidine-1-carboxamide], the IC50 was less than 10 nM.

Regarding `CN(C(=O)C1CC(S(=O)(=O)N2CCC(c3c[nH]c4ncccc34)CC2)C1)C(C)(C)C` (centres unmarked) [Compound 278, N-tert-butyl-N-methyl-3-[4-(1H-pyrrolo [2,3-b]pyridin-3-yl)piperidin-1-yl]sulfonylcycl obutane-1-carboxamide], the IC50 is 10 to 100 nM.

Regarding `COC(=O)N1CCC(S(=O)(=O)N2CCC(c3ccncc3)CC2)CC1` [Compound 106, methyl 4-(4-pyridin-4-ylpiperidin-1-yl)sulfonylpiper-idine-1-carboxylate], the IC50 is 1000 to 10000 nM.

On to `O=C(OC1COC1)N1CC(S(=O)(=O)N2CCC(c3c[nH]c4ncccc34)CC2)C1` [Compound 222, oxetan-3-yl 3-[4-(1H-pyrrolo[2,3-b]pyridin-3-yl)piperidin-1-yl]sulfonylaze-tidine-1-carboxylate], for which the IC50 fell in the range of 100 to 1000 nM.

Consider `O=C(OC1CCCCC1)N1CC(S(=O)(=O)N2CCC(c3cnc4occc4c3)CC2)C1` [Compound 38, cyclohexyl 3-(4-furo[2,3-b]pyridin-5-ylpiperidin-1-yl)sulfonylaze-tidine-1-carboxylate], for which the IC50 was 100 to 1000 nM.

With `CC(C)(C)OC(=O)N1CC(S(=O)(=O)N2CCC(c3cncn3Cc3ccccc3)CC2)C1` [Compound 3, tert-butyl 3-[4-(3-benzylimidazol-4-yl)piperidin-1-yl]sulfonylaze-tidine-1-carboxylate], the IC50 was 100 to 1000 nM.

Consider `CC(C)(C)OC(=O)N1CCC(S(=O)(=O)N2CCC(c3c[nH]c4ncccc34)CC2)C1` (racemic) [Compound 150, tert-butyl 3-[4-(1H-pyrrolo[2,3-b]pyridin-3-yl)piperidin-1-yl]sulfonylpyrr olidine-1-carboxylate], for which the IC50 fell in the range of 10 to 100 nM.

In the case of `CC(C)(C)NC(=O)[C@H]1C[C@H](S(=O)(=O)N2CCC(c3coc4cccnc34)CC2)C1` [Compound 346, trans-N-tert-butyl-3-(4-furo[3,2-b]pyridin-3-ylpiperidin-1-yl) sulfonylcyclobutane-1-carboxamide], the IC50 fell in the range of 1000 to 10000 nM.
